In patent US9221810B2, “Substituted bicyclic aromatic compounds as S-nitrosoglutathione reductase inhibitors” (Nivalis Therapeutics, Inc., priority 2010, dated 2015):

Tests used:
[1] = system: mouse model of ovalbumin (OVA)-induced asthma; test: Mouse model of ovalbumin (OVA)-induced asthma: MCh-induced AHR (Penh) and eosinophil infiltrate in BALF; assay type: in vivo; details: single IV dose of 10 mg/kg at 24 h prior to assessment
Experimental: A mouse model of ovalbumin (OVA)-induced asthma was used to screen GSNOR inhibitors for efficacy against methacholine (MCh)-induced bronchoconstriction/airway hyper-responsiveness. This is a widely used and well characterized model that presents with an acute, allergic asthma phenotype with similarities to human asthma. Efficacy of GSNOR inhibitors was assessed using a protocol in which GSNOR inhibitors were administered after OVA sensitization and airway challenge, and prior to challenge with MCh. Bronchoconstriction in response to challenge with increasing doses of MCh was assessed using whole body plethysmography (Penh; Buxco). The amount of eosinophil infiltrate into the bronchoaveolar lavage fluid (BALF) was also determined as a measure of lung inflammation. The effects of GSNOR inhibitors were compared to vehicles and to Combivent (inhaled; IH) as the positive control.
OVA (500 μg/ml) in PBS was mixed with equal volumes of 10% (w/v) aluminum potassium sulfate in distilled water and incubated for 60 min. at room temperature after adjustment to pH 6.5 using 10 N NaOH. After centrifugation at 750×g for 5 min, the OVA/alum pellet was resuspended to the original volume in distilled water. Mice received an intraperitoneal (IP) injection of 100 μg OVA (0.2 mL of 500 μg/mL in normal saline) complexed with alum on day 0. Mice were anesthetized by IP injection of a 0.2-mL mixture of ketamine and xylazine (0.44 and 6.3 mg/mL, respectively) in normal saline and were placed on a board in the supine position. Two hundred fifty micrograms (100 μl of a 2.5 mg/ml) of OVA (on day 8) and 125 μg (50 μl of 2.5 mg/ml) OVA (on days 15, 18, and 21) were placed on the back of the tongue of each animal.
In vivo airway responsiveness to methacholine was measured 24 h after the last OVA challenge in conscious, freely moving, spontaneously breathing mice with whole body plethysmography using a Buxco chamber (Wilmington, N.C.). […] The degree of bronchoconstriction was expressed as enhanced pause (Penh), a calculated dimensionless value, which correlates with the measurement of airway resistance, impedance, and intrapleural pressure in the same mouse. Penh readings were taken and averaged for 4 min. after each nebulization challenge. Penh is calculated as follows: Penh=[(Te/Tr−1)×(PEF/PIF)], where Te is expiration time, Tr is relaxation time, PEF is peak expiratory flow, and PIF is peak inspiratory flow×0.67 coefficient. […]
After measurement of airway hyper-reactivity, the mice were exsanguinated by cardiac puncture, and then BALF was collected from either both lungs or from the right lung after tying off the left lung at the mainstem bronchus. Total BALF cells were counted from a 0.05 mL aliquot, and the remaining fluid was centrifuged at 200×g for 10 min at 4° C. […]

[2] = Mouse pharmacokinetic (PK) study; assay type: in vivo, male BALB/c mice; details: male, BALB/c, plasma, po, 10 mg/kg, IV 2 mg/kg, read-out: oral bioavailability (% F)
From the text: The mouse was used to determine the pharmacokinetics of compounds of the invention. This species is widely used to assess the bioavailability of compounds by administering both oral (PO) and intravenous (IV) test articles. Efficacy of the compounds of the invention was compared by assessing plasma exposure in male BALB/c mice either via IV or PO administration at the times of peak activity.
Compounds of the invention were reconstituted in a phosphate buffered saline (PBS)/10% Solutol (HS 15) clear solution resulting in a concentration of 0.2 mg/mL and administered to mice (2 mg/kg) as a single IV dose. Animals were dosed via the lateral tail vein. Blood samples were collected at designated time points (0.083, 0.25, 0.5, 1, 2, 4, 8, 16, 24 hours) by cardiac puncture under isoflurane anesthesia (up to 1 mL blood per animal). The blood was collected into tubes containing Li-Heparin. The blood samples were kept on ice until centrifugation within approximately 30 minutes of collection. The plasma was transferred into labeled polypropylene tubes and frozen at −70° C. until analyzed by LC/MS/MS.
The compounds of the invention were reconstituted in 40% Propylene Glycol/40% Propylene Carbonate/20% of a 5% Sucrose clear solution resulting in a concentration of 2 mg/mL and administered to mice (10 mg/kg) as a single oral dose via gavage. Blood samples were collected at 0.25, 0.5, 1, 2, 4, 8, 12, 16, 20 and 24 hours post dose by cardiac puncture under isoflurane anesthesia. The blood was collected in tubes containing Li-Heparin. […] The plasma was transferred into labeled polypropylene tubes and frozen at −70° C. until analyzed by LC/MS/MS.
Plasma samples at each timepoint were analyzed using a LC-MS/MS with a lower limit of quantification (LLOQ) of 1 ng/mL. Plasma was analyzed to determine the amount of the compound of the invention in each sample and regression curves generated for each compounds of the invention in the relevant matrixes. […]
In addition to the above PK parameters, bioavailability (% F) was calculated.

bioavailability [2]: > 9%
Compound: Oc1ccc2nc(-c3ccc(-c4nnn[nH]4)cc3)ccc2c1 [Example 4, 2-(4-(1H-tetrazol-5-yl)phenyl)quinolin-6-ol]
decrease of eosinophil infiltration into BALF [1]: 20 % of vehicle control
decrease of MCh-induced AHR ([1]; p<0.05): 19 % of vehicle control
